Laboratory results taken from patent US20220370553A1, “PREBIOTIC-INDUCED ANTI-TUMOR IMMUNITY” (Sanford Burnham Prebys Medical Discovery Institute, priority 2019, published 2022).

What was measured:
Yumm1.5 tumors = assay: Flow cytometry of tumor-infiltrating immune cells in Yumm1.5 tumors; format: in vivo, C57BL/6 mice; settings: 20 days following tumor inoculation
Source text: FIG. 2B, Quantification of tumor-infiltrating effector (CD44hi) CD4+, CD8+ and CD45+ T cells from mice treated as in FIG. 2A (n=10). FIG. 2C, Quantification of tumor-infiltrating, IFN-g-producing CD4+ T cells from mice treated as in FIG. 2A (n=10). FIG. 2D, Quantification of tumor-infiltrating total DCs and subsets in mice treated as in FIG. 2A (n=10). FIG. 2E, MFI of MHC class I and MHC class II on DCs from the tumors of mice treated as in FIG. 2A (n=10). […] Graphs show the mean s.e.m. *P<0.05, **P<0.005, ***P<0.001,****P<0.0001 by two-way ANOVA with Tukey's correction (A) and by one-way ANOVA with Tukey's correction (B-E).
(§1) Tumor digestion. Tumors were excised, minced, and digested with 1 mg/ml collagenase D (Roche) and 100 μg/ml DNase I (Sigma) at 37° C. for 1 h. Digests were then passed through a 70-μm cell strainer to generate a single-cell suspension. The cells were washed twice with PBS containing 2 mM EDTA, and then stained for flow cytometry.
(§2) Flow cytometry. Tumor-derived single-cell suspensions were washed twice with FACS staining buffer, fixed for 15 min with 1% formaldehyde in PBS, washed twice, and resuspended in FACS staining buffer. For intracellular cytokine staining, cells were resuspended in complete RPMI-1640 (containing 10 mM HEPES, 1% non-essential amino acids and L-glutamine, 1 mM sodium pyruvate, 10% heat-inactivated fetal bovine serum (FBS), and antibiotics) supplemented with 50 U/mL IL-2 (NCI), […] brefeldin A (BFA, Sigma), and incubated with phorbol myristate acetate (10 ng/ml) and ionomycin (0.5 μg/ml) at 37° C. The cells were then fixed and permeabilized using a Cytofix/Cytoperm Kit (BD Biosciences) before staining. Antibodies to the following proteins were used: CD45.2 (104), CD8a (53-6.7), CD4 (GK1.5), CD44 (IM7), TNF-α (MP6-XT22), IFN-γ (XMG1.2), CD11c (N418), CD11b (M1/70), MHC class II (M5/114.15.2), PDCA (129c1), and B220 (RA3-6B2) from BioLegend, and antibodies to IL-2 (JES6-5H4) and MHC class I (AF6-88.5.5.3) from eBioscience. All data were collected on an LSRFortessa (BD Biosciences) and analyzed using FlowJo Software (Tree Star).

[1] = test system: MC-38 mouse colorectal cancer cells; assay: Flow cytometry of tumor-infiltrating immune cells in MC-38 tumors; format: in vivo, C57BL/6 mice
Protocol: as §1, §2
MC-38 mouse colorectal cancer cells (1×10^6) were inoculated, and diets were continued after inoculation.

fecal microbiota = assay: 16S sequencing of fecal microbiota, MC-38 colon cancer model; format: in vivo, C57BL/6 mice
Protocol: Bacterial DNA extraction and 16S library preparation. […] Mouse fecal pellets were frozen on dry ice, and stored at −80° C. Bacterial DNA was extracted using the QIAmp Fast DNA Stool Mini Kit (Qiagen). To ensure efficient cell lysis, a 5-min bead-beating step using a Mini-Beadbeater-16 was included (Biospec Products, OK, USA). Library preparation for the Illumina MiSeq platform was performed by amplification of the V3-V4 region of the bacterial 16S ribosomal DNA gene using
C. Adapter and barcode sequences for dual indices were used as described by Illumina. PCR clean up steps were performed with QIAquick 96-PCR Clean up kit (Qiagen, Germany), and library quantification was performed using a KAPA Library Quantification Kit for Illumina platforms (KAPA Biosystems, MA, USA). An Experion Automated Gel Electrophoresis System (Bio-Rad, CA, USA) was used to measure the DNA concentration and purity of the pooled libraries. The 16S libraries were sequenced at Novagene (Beijing, China) and the SBP sequencing Core.
16S sequencing data processing. The original FASTQ files from Illumina 250 basepair paired-end sequencing of the samples were processed using a novel 16S amplicon sequencing pipeline HiMap (http://github.com/taolonglab/himap; BioRxiv 565572). The output of HiMap is Operational Strain Unit (OSU) which contains one or more bacterial strains that best match the 16S sequence and cannot be further distinguished. The percentage similarity between the 16S sequence and the aligned region of 16S rRNA genes of the strains in the OSU is indicated. OSUs mapped to the same strains are grouped together (adding read counts) if percentage similarities are within 3%. Read counts are converted into relative abundance as described in HiMap. Log 10-transformed relative abundances were used for comparisons between samples under different experimental conditions.
The effects of inulin on the microbiota were evaluated in a colon cancer model. […] MC-38 mouse colorectal cancer cells (1×10^6) were inoculated, and diets were continued after inoculation.
(§3) P-values were calculated using paired one-tail Wilcoxon rank sum test.
as §3

[2] = test system: SW1 (syngeneic NRAS mutant melanoma) cells; assay: SW1 melanoma growth with mucin and/or inulin; format: in vivo, C3H/HeOuJ mice; settings: 3% mucin in drinking water and/or 15% inulin diet from 14 days prior to inoculation
Source text: FIG. 17A Growth of SW1 mouse melanoma cells in C3H/HeOuJ mice that were fed with 0 or 3% mucin in drinking water and/or a diet enriched with 15% inulin, starting 14 days prior to (and continued after) tumor inoculation (n=10). FIG. 17B. […] Graphs show the mean±s.e.m. *P<0.05, **P<0.005,***P<0.001, ****P<0.0001 by two-way ANOVA with Tukey's correction.
Animals and tumor models. All experimental animal procedures were approved by the Institutional Animal Care and Use Committee of Sanford Burnham Prebys Medical Discovery Institute (SBP) and complied with all relevant ethical regulations for animal testing and research. C57BL/6 mice were obtained from Sanford Burnham Prebys Medical Discovery Institute. […] C3H/HeOuJ mice were purchased from Jackson laboratories. Male 6-8-week-old mice were used for all experiments. […] All mice were fed an autoclaved chow diet ad libitum (LabDiet 5K67, Purina Foods). […] Mouse selection for experiments was not formally randomized or blinded. For tumor growth experiments, mice were injected subcutaneously (s.c.) with 1×10^6 tumor cells. Tumor size was measured twice a week for calculation of tumor volume. Tumors were weighed at the time of excision.
Mucin and inulin treatment. For mucin treatment, C57BL/6 mice were subjected to control or water supplemented with 3% mucin (Lee Biosolutions) prior to (14 days) and during tumor inoculation. […]

[3] = B: 14 days after mucin feeding, A (prior to feeding) 0.001, p A vs B 0.001
[4] = C: 20 days post-tumor cell inoculation with mucin feeding
[5] = C: 20 days post-tumor cell inoculation with mucin feeding, p B vs C 0.006
[6] = C: 20 days post-tumor cell inoculation with mucin feeding, p B vs C 0.007
[7] = C: 20 days post-tumor cell inoculation with mucin feeding, p B vs C 0.011

mucin
MHC class I and MHC class II on tumor-resident DCs (Yumm1.5 tumors): higher levels | dendritic cell subsets including pDCs and CD8a+ conventional DCs in tumors (Yumm1.5 tumors): increased | effector (CD44hi) CD4+ and CD8+ T cells, and CD45+ cells in tumors (Yumm1.5 tumors; compared to control mice): enrichment | CD4+ or CD8+ T cells, CD45+ cells, cytokine production, DCs and DC subsets in tumors [1]: No differences | Abundance of phylotype group Clostridium cellulolyticum (93) (fecal microbiota; [3]): 0.055 | Abundance of phylotype group Dubosiella newyorkensis (93) (fecal microbiota; [3]): 0.044 | Abundance of phylotype group Staphylococcus saprophyticus (100) (fecal microbiota; B: 14 days after mucin feeding, A (prior to feeding) 0.001, p A vs B 0.005): 0.057 | Abundance of phylotype group Corynebacterium ammoniagenes (99) (fecal microbiota; B: 14 days after mucin feeding, A (prior to feeding) 0.001, p A vs B 0.006): 0.054 | Abundance of phylotype group Olsenella profusa (92) (fecal microbiota; B: 14 days after mucin feeding, A (prior to feeding) 0.001, p A vs B 0.023): 0.118 | Abundance of phylotype group Christensenella timonensis (88) / Anaerotruncus colihominis (88) (fecal microbiota; B: 14 days after mucin feeding, A (prior to feeding) 0.001, p A vs B 0.025): 0.010 | Abundance of phylotype group Gracilibacter thermotolerans (89) / Christensenella massiliensis (88) (fecal microbiota; B: 14 days after mucin feeding, A (prior to feeding) 0.001, p A vs B 0.036): 0.006 | Abundance of phylotype group Bifidobacterium pseudolongum (90) (fecal microbiota; B: 14 days after mucin feeding, A (prior to feeding) 0.001, p A vs B 0.049): 0.025 | Abundance of phylotype group Ruminococcus lactaris (97) / Clostridium oroticum (97) (fecal microbiota; B: 14 days after mucin feeding, A (prior to feeding) 0.004, p A vs B 0.0005): 0.062 | Abundance of phylotype group Clostridium hylemonae (98) / Muricomes intestini (98) / Clostridium oroticum (98) XIVa (fecal microbiota; B: 14 days after mucin feeding, A (prior to feeding) 0.005, p A vs B 0.040): 0.029 | Abundance of phylotype group Desulfovibrio desulfuricans (95) (fecal microbiota; B: 14 days after mucin feeding, A (prior to feeding) 0.008, p A vs B 0.035): 0.338 | Abundance of phylotype group Clostridium cellulovorans (89) / Christensenella massiliensis (88) (fecal microbiota; B: 14 days after mucin feeding, A (prior to feeding) 0.009, p A vs B 0.048): 0.045 | Abundance of phylotype group Eubacterium dolichum (93) (fecal microbiota; B: 14 days after mucin feeding, A (prior to feeding) 0.011, p A vs B 0.025): 0.106 | Abundance of phylotype group Clostridium viride (96) / Intestinimonas butyriciproducens (96) / Pseudoflavonifractor capillosus (95) (fecal microbiota; B: 14 days after mucin feeding, A (prior to feeding) 0.013, p A vs B 0.001): 0.062 | Abundance of phylotype group Roseburia faecis (95) (fecal microbiota; B: 14 days after mucin feeding, A (prior to feeding) 0.013, p A vs B 0.009): 0.124 | Abundance of phylotype group Ihubacter massiliensis (98) / E. timonensis (96) (fecal microbiota; B: 14 days after mucin feeding, A (prior to feeding) 0.014, p A vs B 0.002): 0.146 | Abundance of phylotype group Clostridium xylanolyticum (98) / C. aerotolerans (97) (fecal microbiota; B: 14 days after mucin feeding, A (prior to feeding) 0.014, p A vs B 0.008): 0.088 | Abundance of phylotype group Harryflintia acetispora (95) / Anaerotruncus colihominis (93) (fecal microbiota; B: 14 days after mucin feeding, A (prior to feeding) 0.017, p A vs B 0.043): 0.040 | Abundance of phylotype group Staphylococcus lentus (100) (fecal microbiota; B: 14 days after mucin feeding, A (prior to feeding) 0.024, p A vs B 0.030): 0.349 | Abundance of phylotype group Roseburia intestinalis (95) / Ruminococcus faecis (95) / E. rectale (95) (fecal microbiota; B: 14 days after mucin feeding, A (prior to feeding) 0.029, p A vs B 0.003): 0.113 | Abundance of phylotype group Eubacterium dolichum (92) (fecal microbiota; B: 14 days after mucin feeding, A (prior to feeding) 0.045, p A vs B 0.00003): 0.291 | Abundance of phylotype group Murimonas intestini (97) / Clostridium celerecrescens (96) XIVa (fecal microbiota; B: 14 days after mucin feeding, A (prior to feeding) 0.104, p A vs B 0.009): 0.300 | Abundance of phylotype group Anaerotaenia torta (96) / C. xylanolyticum (95) (fecal microbiota; B: 14 days after mucin feeding, A (prior to feeding) 0.168, p A vs B 1 × 10^−6): 0.421 | Abundance of phylotype group Olsenella profusa (95) (fecal microbiota; B: 14 days after mucin feeding, A (prior to feeding) 0.180, p A vs B 0.004): 4.883 | Abundance of phylotype group Clostridium cocleatum (99) (fecal microbiota; B: 14 days after mucin feeding, A (prior to feeding) 0.253, p A vs B 0.011): 7.822 | Abundance of phylotype group Muribaculum intesinale (92) (fecal microbiota; B: 14 days after mucin feeding, A (prior to feeding) 6.008, p A vs B 4 × 10^−7): 17.058 | Abundance of phylotype group Bifidobacterium pseudolongum (90) (fecal microbiota; [4]): 0.006 | Abundance of phylotype group Clostridium cellulolyticum (93) (fecal microbiota; [4]): 0.055 | Abundance of phylotype group Clostridium cellulovorans (89) / Christensenella massiliensis (88) (fecal microbiota; [4]): 0.038 | Abundance of phylotype group Clostridium cocleatum (99) (fecal microbiota; [4]): 3.099 | Abundance of phylotype group Clostridium hylemonae (98) / Muricomes intestini (98) / Clostridium oroticum (98) XIVa (fecal microbiota; [4]): 0.030 | Abundance of phylotype group Desulfovibrio desulfuricans (95) (fecal microbiota; [4]): 0.533 | Abundance of phylotype group Eubacterium dolichum (92) (fecal microbiota; [4]): 0.462 | Abundance of phylotype group Eubacterium dolichum (93) (fecal microbiota; [4]): 0.279 | Abundance of phylotype group Gracilibacter thermotolerans (89) / Christensenella massiliensis (88) (fecal microbiota; [4]): 0.020 | Abundance of phylotype group Murimonas intestini (97) / Clostridium celerecrescens (96) XIVa (fecal microbiota; [4]): 0.462 | Abundance of phylotype group Olsenella profusa (92) (fecal microbiota; [4]): 0.068 | Abundance of phylotype group Olsenella profusa (95) (fecal microbiota; [4]): 3.256 | Abundance of phylotype group Ruminococcus lactaris (97) / Clostridium oroticum (97) (fecal microbiota; [4]): 0.060 | Abundance of phylotype group Dubosiella newyorkensis (93) (fecal microbiota; C: 20 days post-tumor cell inoculation with mucin feeding, p B vs C 0.001): 0.005 | Abundance of phylotype group Corynebacterium ammoniagenes (99) (fecal microbiota; [5]): 0.002 | Abundance of phylotype group Harryflintia acetispora (95) / Anaerotruncus colihominis (93) (fecal microbiota; [5]): 0.172 | Abundance of phylotype group Clostridium viride (96) / Intestinimonas butyriciproducens (96) / Pseudoflavonifractor capillosus (95) (fecal microbiota; [6]): 0.113 | Abundance of phylotype group Muribaculum intesinale (92) (fecal microbiota; [6]): 11.857 | Abundance of phylotype group Roseburia intestinalis (95) / Ruminococcus faecis (95) / E. rectale (95) (fecal microbiota; [6]): 0.407 | Abundance of phylotype group Roseburia faecis (95) (fecal microbiota; [7]): 0.555 | Abundance of phylotype group Staphylococcus saprophyticus (100) (fecal microbiota; [7]): 0.006 | Abundance of phylotype group Christensenella timonensis (88) / Anaerotruncus colihominis (88) (fecal microbiota; C: 20 days post-tumor cell inoculation with mucin feeding, p B vs C 0.028): 0.027 | Abundance of phylotype group Staphylococcus lentus (100) (fecal microbiota; C: 20 days post-tumor cell inoculation with mucin feeding, p B vs C 0.034): 0.033 | SW1 tumor growth [2]: attenuated tumor growth
